Target: phosphorylated active hERK2 enzyme (Homo sapiens (Human), UniProt P28482)
Conditions: read-out: ERK2 IC50; IMAP-FP assay; 0.5 nM hERK2, 30 μM ATP; 10 point titration, 3 μM starting concentration

phosphorylated active hERK2 enzyme, sequence (P28482 whole entry): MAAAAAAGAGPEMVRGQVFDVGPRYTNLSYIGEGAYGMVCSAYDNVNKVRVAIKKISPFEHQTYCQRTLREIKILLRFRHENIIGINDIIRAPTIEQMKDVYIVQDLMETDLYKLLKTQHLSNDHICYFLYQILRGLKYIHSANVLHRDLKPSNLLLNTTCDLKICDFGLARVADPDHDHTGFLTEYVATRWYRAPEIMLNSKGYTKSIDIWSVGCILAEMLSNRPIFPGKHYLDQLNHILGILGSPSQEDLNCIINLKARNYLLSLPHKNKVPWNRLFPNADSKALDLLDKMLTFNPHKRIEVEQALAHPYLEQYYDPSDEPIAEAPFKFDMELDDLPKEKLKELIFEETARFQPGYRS

| SMILES | IC50 |
| --- | --- |
| Cc1cc(-n2ncc3cc(NC(=O)NC(C)(C)c4ccccc4)ncc32)ccn1 [Example 122, 1-(1-methyl-1-phenylethyl)-3-[1-(2-methylpyridin-4-yl)-1H-pyrazolo[3,4-c]pyridin-5-yl]urea] | 56.8 nM |
| Cc1cc(-n2ncc3cc(NC(=O)NC(C)c4csc(C)n4)ncc32)ccn1 (stereo not shown) [Example 123, 1-[1-(2-methylpyridin-4-yl)-1H-pyrazolo[3,4-c]pyridin-5-yl]-3-[1-(2-methyl-1,3-thiazol-4-yl)ethyl]urea] | 24.8 nM |
| Cc1cc(-n2ncc3cc(NC(=O)N[C@@H]4CN(C)C[C@H]4c4ccc(C)s4)ncc32)ccn1 [Example 124, 1-[(3S,4R)-1-methyl-4-(5-methylthiophen-2-yl)pyrrolidin-3-yl]-3-[1-(2-methylpyridin-4-yl)-1H-pyrazolo[3,4-c]pyridin-5-yl)urea] | 1.01 nM |
| Cc1cc(-n2ncc3cc(NC(=O)NCc4csc5ccccc45)ncc32)ccn1 [Example 125, 1-(1-benzothiophen-3-ylmethyl)-3-[1-(2-methylpyridin-4-yl)-1H-pyrazolo[3,4-c]pyridin-5-yl)urea] | 84.5 nM |
| Cc1cc(-n2ncc3cc(NC(=O)N[C@@H]4CN(C)C[C@H]4c4nc(C)cs4)ncc32)ccn1 [Example 126, 1-[(3S,4R)-1-methyl-4-(4-methyl-1,3-thiazol-2-yl)pyrrolidin-3-yl]-3-[1-(2-methylpyridin-4-yl)-1H-pyrazolo[3,4-c]pyridin-5-yl)urea] | 15.8 nM |
| Cc1cc(-n2ncc3cc(NC(=O)N[C@H](CN4CCOCC4)c4ccccc4)ncc32)ccn1 [Example 127, 1-[1-(2-methylpyridin-4-yl)-1H-pyrazolo[3,4-c]pyridin-5-yl]-3-[(1S)-2-morpholin-4-yl-1-phenylethyl]urea] | 152 nM |
| Cc1cc(-n2ncc3cc(NC(=O)NC(C)c4csc(C)n4)ncc32)ccn1 (stereo not shown) [Example 128, 1-[1-(2-methylpyridin-4-yl)-1H-pyrazolo[3,4-c]pyridin-5-yl]-3-[1-(2-methyl-1,3-thiazol-4-yl)ethyl]urea] | 2030 nM |
| CCOC[C@@H](NC(=O)Nc1cc2cnn(-c3ccnc(C)c3)c2cn1)c1ccccc1 [Example 129, 1-[(1S)-2-ethoxy-1-phenylethyl]-3-[1-(2-methylpyridin-4-yl)-1H-pyrazolo[3,4-c]pyridin-5-yl)urea] | 1.09 nM |
| Cc1cc(-n2ncc3cc(NC(=O)N[C@H](CN(C)C)c4ccccc4)ncc32)ccn1 [Example 130, 1-[(1S)-2-(dimethylamino)-1-phenylethyl]-3-[1-(2-methylpyridin-4-yl)-1H-pyrazolo[3,4-c]pyridin-5-yl)urea] | 123 nM |
| Cc1cc(-n2ncc3cc(NC(=O)NC(C)c4csc(C)n4)ncc32)ccn1 (stereo not shown) [Example 131, 1-[1-(2-methylpyridin-4-yl)-1H-pyrazolo[3,4-c]pyridin-5-yl]-3-[1-(2-methyl-1,3-thiazol-4-yl)ethyl]urea] | 10.9 nM |
| CO[C@H]1CNC[C@@H]1NC(=O)Nc1cc2cnn(-c3ccnc(C)c3)c2cn1 [Example 132, 1-[(3S,4S)-4-methoxypyrrolidin-3-yl]-3-[1-(2-methylpyridin-4-yl)-1H-pyrazolo[3,4-c]pyridin-5-yl]urea] | 168 nM |
| Cc1cc(-n2ncc3cc(NC(=O)NC4CCNC4)ncc32)ccn1 (stereo not shown) [Example 133, 1-[1-(2-methylpyridin-4-yl)-1H-pyrazolo[3,4-c]pyridin-5-yl]-3-pyrrolidin-3-ylurea] | 456 nM |
| Cc1cc(-n2ncc3cc(NC(=O)N[C@H](Cn4ccnc4)c4ccccc4)ncc32)ccn1 [Example 134, 1-[(1S)-2-(1H-imidazol-1-yl)-1-phenylethyl]-3-[1-(2-methylpyridin-4-yl)-1H-pyrazolo[3,4-c]pyridin-5-yl]urea] | 475 nM |
| Cc1cc(-n2ncc3cc(NC(=O)N[C@H](COC(C)C)c4ccccc4)ncc32)ccn1 [Example 135, 1-[(1S)-2-(1-methylethoxy)-1-phenylethyl]-3-[1-(2-methylpyridin-4-yl)-1H-pyrazolo[3,4-c]pyridin-5-yl]urea] | 0.786 nM |
| COCCOC[C@@H](NC(=O)Nc1cc2cnn(-c3ccnc(C)c3)c2cn1)c1ccccc1 [Example 136, 1-[(1S)-2-(2-methoxyethoxy)-1-phenylethyl]-3-[1-(2-methylpyridin-4-yl)-1H-pyrazolo[3,4-c]pyridin-5-yl]urea] | 4.39 nM |
| COC(=O)[C@@H](NC(=O)Nc1cc2cnn(-c3ccnc(C)c3)c2cn1)c1ccccc1 [Example 137, methyl (2S)-({[1-(2-methylpyridin-4-yl)-1H-pyrazolo[3,4-c]pyridin-5-yl]carbamoyl}amino)(phenyl) ethanoate] | 857 nM |
| Cc1cc(-n2ncc3cc(NC(=O)N[C@H]4CCCC[C@@H]4N)ncc32)ccn1 [Example 138, 1-[(1S,2S)-2-aminocyclohexyl]-3-[1-(2-methylpyridin-4-yl)-1H-pyrazolo[3,4-c]pyridin-5-yl]urea] | 396 nM |

| SMILES | IC50 |
| --- | --- |
| CC(=O)N[C@H]1CCCC[C@@H]1NC(=O)Nc1cc2cnn(-c3ccnc(C)c3)c2cn1 [Example 139, N-[(1S,2S)-2-({[1-(2-methylpyridin-4-yl)-1H-pyrazolo[3,4-c]pyridin-5-yl]carbamoyl}amino)cyclohexyl] acetamide] | 2160 nM |
| CO[C@H]1CCC[C@@H]1NC(=O)Nc1cc2cnn(-c3ccnc(C)c3)c2cn1 [Example 140, 1-[(1S,2S)-2-methoxycyclopentyl]-3-[1-(2-methylpyridin-4-yl)-1H-pyrazolo[3,4-c]pyridin-5-yl)urea] | 72.1 nM |
| CCNC(=O)[C@@H](NC(=O)Nc1cc2cnn(-c3ccnc(C)c3)c2cn1)c1ccccc1 [Example 141, (2S)-N-ethyl-2-({[1-(2-methylpyridin-4-yl)-1H-pyrazolo[3,4-c]pyridin-5-yl]carbamoyl}amino)-2-phenylethanamide] | 2.58 nM |
| CNC(=O)[C@@H](NC(=O)Nc1cc2cnn(-c3ccnc(C)c3)c2cn1)c1ccccc1 [Example 142, (2S)-N-methyl-2-({[1-(2-methylpyridin-4-yl)-1H-pyrazolo[3,4-c]pyridin-5-yl]carbamoyl}amino)-2-phenylethanamide] | 1.09 nM |
| Cc1cc(-n2ncc3cc(NC(=O)N[C@H]4CCCC[C@@H]4N(C)C)ncc32)ccn1 [Example 143, 1-[(1S,2S)-2-(dimethylamino)cyclohexyl]-3-[1-(2-methylpyridin-4-yl)-1H-pyrazolo[3,4-c]pyridin-5-yl)urea] | 127 nM |
| CCN(CC)C(=O)[C@@H](NC(=O)Nc1cc2cnn(-c3ccnc(C)c3)c2cn1)c1ccccc1 [Example 144, (2S)-N,N-diethyl-2-({[1-(2-methylpyridin-4-yl)-1H-pyrazolo[3,4-c]pyridin-5-yl]carbamoyl}amino)-2-phenylethanamide] | 89.3 nM |
| Cc1cc(-n2ncc3cc(NC(=O)N[C@H]4CN(C)C[C@@H]4CCCc4ccccc4)ncc32)ccn1 [Example 149, 1-[(3R,4S)-1-methyl-4-(3-phenylpropyl)pyrrolidin-3-yl]-3-[1-(2-methylpyridin-4-yl)-1H-pyrazolo[3,4-c]pyridin-5-yl]urea] | 1.18 nM |
| Cc1cc(-n2ncc3cc(NC(=O)N[C@H]4CN(C)C[C@@H]4c4cc(C)on4)ncc32)ccn1 [Example 150, 1-[(3R,4S)-1-methyl-4-(5-methylisoxazol-3-yl)pyrrolidin-3-yl]-3-[1-(2-methylpyridin-4-yl)-1H-pyrazolo[3,4-c]pyridin-5-yl]urea] | 32.6 nM |
| Cc1cc(-n2ncc3cc(NC(=O)N[C@H]4CCC[C@@H]4OCc4ccccc4)ncc32)ccn1 [Example 154, 1-[(1S,2S)-2-(benzyloxy)cyclopentyl]-3-[1-(2-methylpyridin-4-yl)-1H-pyrazolo[3,4-c]pyridin-5-yl]urea] | 7.51 nM |
| Cc1cc(-n2ncc3cc(NC(=O)N[C@H]4CN(C)C[C@@H]4c4ccc(-c5ccccc5)s4)ncc32)ccn1 [Example 155, 1-[(3R,4S)-1-methyl-4-(5-phenylthiophen-2-yl)pyrrolidin-3-yl]-3-[1-(2-methylpyridin-4-yl)-1H-pyrazolo[3,4-c]pyridin-5-yl]urea] | 591 nM |
| Cc1cc(-n2ncc3cc(NC(=O)N[C@H]4CN(CC(F)(F)F)C[C@@H]4c4ccccc4)ncc32)ccn1 [Example 156, 1-[1-(2-methylpyridin-4-yl)-1H-pyrazolo[3,4-c]pyridin-5-yl]-3-[(3R,4S)-4-phenyl-1-(2,2,2-trifluoroethyl)pyrrolidin-3-yl)urea] | 8.85 nM |
| Cc1cc(-n2ncc3cc(NC(=O)N[C@H]4CNC[C@@H]4Oc4ccccc4)ncc32)ccn1 [Example 157, 1-[1-(2-methylpyridin-4-yl)-1H-pyrazolo[3,4-c]pyridin-5-yl]-3-[(3S,4S)-4-phenoxypyrrolidin-3-yl)urea] | 35.3 nM |
| Cc1cc(-n2ncc3cc(NC(=O)N[C@H]4CN(C)C[C@@H]4Oc4ccccc4)ncc32)ccn1 [Example 158, 1-[(3S,4S)-1-methyl-4-phenoxypyrrolidin-3-yl]-3-[1-(2-methylpyridin-4-yl)-1H-pyrazolo[3,4-c]pyridin-5-yl]urea] | 20.5 nM |
| Cc1cc(-n2ncc3cc(NC(=O)NC(c4ccccc4)C4CCCO4)ncc32)ccn1 (stereo not shown) [Example 159, 1-[1-(2-methylpyridin-4-yl)-1H-pyrazolo[3,4-c]pyridin-5-yl]-3-[phenyl(tetrahydrofuran-2-yl)methyl]urea] | 2.49 nM |
| Cc1cc(-n2ncc3cc(NC(=O)N[C@H]4CCC[C@H]4Cc4ccccc4)ncc32)ccn1 [Example 160, 1-[(1S,2S)-2-benzylcyclopentyl]-3-[1-(2-methylpyridin-4-yl)-1H-pyrazolo[3,4-c]pyridin-5-yl)urea] | 13.9 nM |
| Cc1cc(-n2ncc3cc(NC(=O)N[C@H]4CCC[C@@H]4Oc4ccccc4)ncc32)ccn1 [Example 161, 1-[1-(2-methylpyridin-4-yl)-1H-pyrazolo[3,4-c]pyridin-5-yl]-3-[(1S,2S)-2-phenoxycyclopentyl]urea] | 13.4 nM |
| Cc1cc(-n2ncc3cc(NC(=O)N[C@H]4CCCC[C@@H]4Cc4ccccc4)ncc32)ccn1 [Example 163, 1-[(1S,2R)-2-benzylcyclohexyl]-3-[1-(2-methylpyridin-4-yl)-1H-pyrazolo[3,4-c]pyridin-5-yl)urea] | 39.4 nM |

Reference: patent US9884048B2, “ERK inhibitors” (Merck Sharp & Dohme Corp., priority 2014, dated 2018)
